Measured values taken from paper PMC3485666 (British Journal of Pharmacology, 2012).

Columns and labels:
human S1P5 receptors = human S1P5 receptors (Homo sapiens, UniProt Q9H228); assay: GTPγ[35S] binding assay, human S1P5; format: biochemical; conditions: read-out: %Emax (percentage of maximum stimulation), S1P5
heart rate = assay: Phase I multiple-dose study: heart rate (Holter monitoring); format: in vivo, human; conditions: for Decrease in mean heart rate Emax0-24 versus placebo: day 1; for Mean heart rate reduction from time-matched day −1: 2 h post dose of day 1
human S1P1 receptors = human S1P1 receptors (Homo sapiens, UniProt P21453); assay: GTPγ[35S] binding assay, human S1P1; format: biochemical
Sequence of human S1P1 receptors (P21453 whole entry): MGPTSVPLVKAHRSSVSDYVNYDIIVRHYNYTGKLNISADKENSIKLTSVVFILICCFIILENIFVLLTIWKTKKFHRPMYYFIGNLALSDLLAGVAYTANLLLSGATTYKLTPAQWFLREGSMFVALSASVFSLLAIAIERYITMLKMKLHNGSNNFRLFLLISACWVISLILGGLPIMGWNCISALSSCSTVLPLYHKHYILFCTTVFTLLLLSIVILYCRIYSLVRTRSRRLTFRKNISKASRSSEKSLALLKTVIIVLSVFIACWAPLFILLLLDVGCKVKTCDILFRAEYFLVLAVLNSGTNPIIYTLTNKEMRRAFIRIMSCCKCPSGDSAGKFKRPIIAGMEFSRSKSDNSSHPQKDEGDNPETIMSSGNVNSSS

clinical = conditions: both, human, in vivo, Complete wash-out (five effective half-lives) after treatment discontinuation
[1] = molecular target: myc-tagged human S1P1 receptors (Homo sapiens, UniProt P21453); assay: Agonist-mediated internalization of S1P1 receptors in CHO cells by flow cytometry; format: cell-based; conditions: for Internalization of S1P1 receptors: 1 h incubation; for S1P1 receptors localized intracellularly: 1 h incubation followed by 3 h without compound
Sequence of myc-tagged human S1P1 receptors (P21453 whole entry): as above

[2] = Phase I multiple-dose study: plasma pharmacokinetics; conditions: for AUCτ / concentration at 28 day / half-life at 28 day: geometric mean [%CV]; for Cmax at 28 day / Tmax / Tmax at 28 day / concentration at 28 day / half-life at 28 day / Cmax / half-life: both, human, plasma, oral; for half-life at 28 day: based on drug accumulation at steady-state
healthy subjects = assay: Phase I multiple-dose study: safety and tolerability; format: in vivo, human
[3] = tested on: experimental autoimmune encephalomyelitis (EAE); assay: Chronic EAE in DA rats, therapeutic dosing; format: in vivo; conditions: DA rat, days 11–34
human S1P2 receptors = human S1P2 receptors (Homo sapiens, UniProt O95136); assay: GTPγ[35S] binding assay, human S1P2; format: biochemical
Sequence of human S1P2 receptors (O95136 whole entry): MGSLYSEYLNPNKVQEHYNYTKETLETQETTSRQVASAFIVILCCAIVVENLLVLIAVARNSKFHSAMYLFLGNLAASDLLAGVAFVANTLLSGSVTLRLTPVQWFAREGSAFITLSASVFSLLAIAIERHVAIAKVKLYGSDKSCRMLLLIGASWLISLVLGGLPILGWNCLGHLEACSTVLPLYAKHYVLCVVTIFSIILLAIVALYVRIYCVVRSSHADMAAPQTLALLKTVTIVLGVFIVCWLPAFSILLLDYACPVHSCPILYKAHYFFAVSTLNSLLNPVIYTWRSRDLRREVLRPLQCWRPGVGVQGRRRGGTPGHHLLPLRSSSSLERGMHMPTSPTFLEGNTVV

human S1P4 receptors = molecular target: T1, human S1P4 receptors (Homo sapiens, UniProt O95977); assay: GTPγ[35S] binding assay, human S1P4; format: biochemical; conditions: read-out: %Emax (percentage of maximum stimulation)
T1 sequence (O95977 1-384): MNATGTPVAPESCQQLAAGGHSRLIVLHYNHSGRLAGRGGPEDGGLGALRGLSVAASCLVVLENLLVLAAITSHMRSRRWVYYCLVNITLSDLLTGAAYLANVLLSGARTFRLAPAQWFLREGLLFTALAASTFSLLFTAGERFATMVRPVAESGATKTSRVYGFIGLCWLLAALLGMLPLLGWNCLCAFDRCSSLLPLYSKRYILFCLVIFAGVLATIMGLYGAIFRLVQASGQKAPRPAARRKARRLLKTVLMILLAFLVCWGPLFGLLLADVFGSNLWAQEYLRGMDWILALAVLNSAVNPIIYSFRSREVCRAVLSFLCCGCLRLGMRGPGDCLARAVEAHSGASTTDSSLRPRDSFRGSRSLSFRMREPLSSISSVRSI

[4] = tested on: peripheral absolute lymphocyte count (ALC); assay: Phase I multiple-dose study: absolute lymphocyte count; format: in vivo, human; conditions: for Difference in mean %Emax of ALC, BAF312 versus placebo: 28 days, ANCOVA; for Average time to reach the lower limit of the normal ALC range after stopping dosing at steady state: predicted by pharmacokinetic/pharmacodynamic model
[5] = tested on: leukocyte subsets in whole blood; assay: Phase I multiple-dose study: leukocyte subsets by flow cytometry; format: in vivo, human; conditions: 10 mg
human S1P3 receptors = human S1P3 receptors (Homo sapiens, UniProt Q99500); assay: GTPγ[35S] binding assay, human S1P3; format: biochemical
Sequence of human S1P3 receptors (Q99500 whole entry): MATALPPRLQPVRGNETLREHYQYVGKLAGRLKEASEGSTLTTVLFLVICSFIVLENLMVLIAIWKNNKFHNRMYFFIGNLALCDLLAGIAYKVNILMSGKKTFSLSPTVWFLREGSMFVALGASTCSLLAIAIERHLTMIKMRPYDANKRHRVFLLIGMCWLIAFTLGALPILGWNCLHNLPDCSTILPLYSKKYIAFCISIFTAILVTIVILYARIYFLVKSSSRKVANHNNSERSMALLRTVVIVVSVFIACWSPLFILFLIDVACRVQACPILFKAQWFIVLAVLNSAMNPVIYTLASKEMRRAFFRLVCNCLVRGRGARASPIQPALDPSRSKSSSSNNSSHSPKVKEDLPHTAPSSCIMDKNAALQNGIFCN

[6] = molecular target: GIRK channels in human atrial myocytes (Homo sapiens, UniProt P21453); assay: Electrophysiological recordings of GIRK current in human atrial myocytes; format: cell-based; conditions: S1P versus BAF312
Sequence of GIRK channels in human atrial myocytes (P21453 whole entry): as the sequence (P21453 whole entry) above
Sequence of GIRK channels in human atrial myocytes (P48549 whole entry partner): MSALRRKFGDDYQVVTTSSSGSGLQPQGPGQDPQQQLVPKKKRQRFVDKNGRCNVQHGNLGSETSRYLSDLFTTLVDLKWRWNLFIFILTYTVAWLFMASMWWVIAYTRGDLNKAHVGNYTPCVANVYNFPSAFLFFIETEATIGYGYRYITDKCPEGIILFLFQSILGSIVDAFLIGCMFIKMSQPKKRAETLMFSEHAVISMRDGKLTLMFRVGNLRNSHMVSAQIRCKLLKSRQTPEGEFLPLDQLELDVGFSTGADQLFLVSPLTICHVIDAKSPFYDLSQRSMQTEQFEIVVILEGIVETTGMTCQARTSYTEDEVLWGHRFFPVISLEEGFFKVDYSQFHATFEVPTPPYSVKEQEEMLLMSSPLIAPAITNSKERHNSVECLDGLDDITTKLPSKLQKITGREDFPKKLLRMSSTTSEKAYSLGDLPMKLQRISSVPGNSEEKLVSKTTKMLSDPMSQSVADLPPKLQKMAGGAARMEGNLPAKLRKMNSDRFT
Sequence of GIRK channels in human atrial myocytes (P48544 whole entry partner): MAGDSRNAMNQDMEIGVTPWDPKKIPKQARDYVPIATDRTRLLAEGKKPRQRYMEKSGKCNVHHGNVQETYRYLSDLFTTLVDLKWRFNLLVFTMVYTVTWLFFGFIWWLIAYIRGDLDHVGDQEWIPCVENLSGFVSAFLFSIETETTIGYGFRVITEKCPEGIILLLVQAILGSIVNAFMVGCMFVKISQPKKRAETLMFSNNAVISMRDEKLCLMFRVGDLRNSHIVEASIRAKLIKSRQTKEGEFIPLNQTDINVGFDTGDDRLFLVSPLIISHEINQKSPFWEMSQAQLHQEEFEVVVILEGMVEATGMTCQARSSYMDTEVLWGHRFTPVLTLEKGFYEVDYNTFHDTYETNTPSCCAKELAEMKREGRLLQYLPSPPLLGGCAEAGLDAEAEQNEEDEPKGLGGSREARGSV

S1P1 receptors = conditions: ref Piali et al., 2011; cited from earlier work

Sequence of human S1P5 receptors (Q9H228 whole entry): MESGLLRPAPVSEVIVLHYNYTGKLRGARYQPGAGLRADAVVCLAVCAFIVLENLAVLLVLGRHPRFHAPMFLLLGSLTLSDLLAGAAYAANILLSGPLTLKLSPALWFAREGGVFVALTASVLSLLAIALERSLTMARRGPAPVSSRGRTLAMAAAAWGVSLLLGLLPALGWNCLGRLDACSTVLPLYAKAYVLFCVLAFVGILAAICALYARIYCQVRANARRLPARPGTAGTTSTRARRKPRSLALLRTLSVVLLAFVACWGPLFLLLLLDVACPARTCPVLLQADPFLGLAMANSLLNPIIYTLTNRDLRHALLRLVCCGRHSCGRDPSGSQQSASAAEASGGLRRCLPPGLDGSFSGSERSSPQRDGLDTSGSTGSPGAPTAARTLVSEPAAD

CCc1cc(/C(C)=N/OCc2ccc(C3CCCCC3)c(C(F)(F)F)c2)ccc1CN1CC(C(=O)O)C1 [BAF312, 1-(4-{1-[(E)-4-cyclohexyl-3-trifluoromethylbenzyloxyimino]-ethyl}-2-ethylbenzyl)-azetidine-3-carboxylic acid]
Emax (human S1P5 receptors): ~100%
Decrease in mean heart rate Emax0-24 versus placebo (heart rate; 0.3 mg, 90% CI in brackets, not significant): −0.92 bpm
Decrease in mean heart rate Emax0-24 versus placebo (heart rate; 1 mg): −6.41 bpm
Decrease in mean heart rate Emax0-24 versus placebo (heart rate; 2.5 mg): −5.44 bpm
Mean heart rate reduction from time-matched day −1 (heart rate; 10 mg): approximately 24 ± 6 bpm
Decrease in mean heart rate Emax0-24 versus placebo (heart rate; 10 mg): −13.88 bpm
Mean heart rate reduction from time-matched day −1 (heart rate; 20 mg): ~29 ± 10 bpm
Subjects with asymptomatic second degree atrioventricular (AV) block (heart rate; active groups, each on day 1): three
Time of maximum decrease in mean ventricular heart rate post dose (heart rate; day 1, all (0.3–20 mg) doses): ~2 h
EC50 (human S1P1 receptors): 0.39 ± 0.07 nM
half-life (clinical): 151 h
Internalization of S1P1 receptors ([1]; 10 nM, 2 experiments): 86 ± 4%
Internalization of S1P1 receptors ([1]; 100 nM, 2 experiments): 99 ± 3%
S1P1 receptors localized intracellularly ([1]; 1 µM, mean ± SD): 87 ± 0.5%
Internalization of S1P1 receptors ([1]; 1 µM, mean ± SD): 91 ± 4%
Surface expression of S1P1 receptors ([1]; incubated for up to 12 h without compound (data not shown)): remained low
AUC0–24 h ([2]; Day 1, 0.3 mg·day^−1): 36.2 [10] h^*ng·mL^−1
AUC0–24 h ([2]; Day 1, 1 mg·day^−1): 136 [8] h^*ng·mL^−1
AUC0–24 h ([2]; Day 1, 2.5 mg·day^−1): 293 [85] h^*ng·mL^−1
AUC0–24 h ([2]; Day 1, 10 mg·day^−1): 1370 [11] h^*ng·mL^−1
AUC0–24 h ([2]; Day 1, 20 mg·day^−1): 2740 [14] h^*ng·mL^−1
AUCτ ([2]; Day 28, 0.3 mg·day^−1): 97.9 [19] h^*ng·mL^−1
AUCτ ([2]; Day 28, 1 mg·day^−1): 282 [16] h^*ng·mL^−1
AUCτ ([2]; Day 28, 2.5 mg·day^−1): 692 [45] h^*ng·mL^−1
AUCτ ([2]; Day 28, 10 mg·day^−1): 2580 [24] h^*ng·mL^−1
Cmin,ss ([2]; Day 28, 20 mg·day^−1, arithmetic mean (SD)): 166 (88.0) ^D ng·mL^−1
AUCτ ([2]; Day 28, 20 mg·day^−1): 6370 [23] h^*ng·mL^−1
Cmax at 28 day ([2]; 0.3 mg·day^−1): 5.31 ng/mL
Tmax ([2]; 0.3 mg·day^−1): 3 h
Tmax at 28 day ([2]; 0.3 mg·day^−1): 3.5 h
concentration at 28 day ([2]; 0.3 mg·day^−1, Cavg, ss, Day 28, 0.3 mg·day^−1): 4.08 ng/mL
concentration at 28 day ([2]; 0.3 mg·day^−1, Cmin,ss, Day 28, 0.3 mg·day^−1): 2.83 ng/mL
half-life at 28 day ([2]; 0.3 mg·day^−1, Effective T1/2, Day 28, 0.3 mg·day^−1): 36.2 h
Cmax ([2]; 1 mg·day^−1): 8.01 ng/mL
Cmax at 28 day ([2]; 1 mg·day^−1): 14.9 ng/mL
Tmax ([2]; 1 mg·day^−1): 4.5 h
Tmax at 28 day ([2]; 1 mg·day^−1): 3 h
concentration at 28 day ([2]; 1 mg·day^−1, Cavg, ss, Day 28, 1 mg·day^−1): 11.7 ng/mL
concentration at 28 day ([2]; 1 mg·day^−1, Cmin,ss, Day 28, 1 mg·day^−1): 7.74 ng/mL
half-life at 28 day ([2]; 1 mg·day^−1, Effective T1/2, Day 28, 1 mg·day^−1): 25.2 h
Cmax ([2]; 2.5 mg·day^−1): 17.4 ng/mL
Cmax at 28 day ([2]; 2.5 mg·day^−1): 38.3 ng/mL
Tmax ([2]; 2.5 mg·day^−1): 3 h
Tmax at 28 day ([2]; 2.5 mg·day^−1): 4 h
concentration at 28 day ([2]; 2.5 mg·day^−1, Cavg, ss, Day 28, 2.5 mg·day^−1): 28.8 ng/mL
concentration at 28 day ([2]; 2.5 mg·day^−1, Cmin,ss, Day 28, 2.5 mg·day^−1): 15.2 ng/mL
Cmax ([2]; 10 mg·day^−1): 84.1 ng/mL
Cmax at 28 day ([2]; 10 mg·day^−1): 147 ng/mL
Tmax ([2]; 10 mg·day^−1): 3 h
Tmax at 28 day ([2]; 10 mg·day^−1): 3 h
concentration at 28 day ([2]; 10 mg·day^−1, Cavg, ss, Day 28, 10 mg·day^−1): 107 ng/mL
concentration at 28 day ([2]; 10 mg·day^−1, Cmin,ss, Day 28, 10 mg·day^−1): 70.6 ng/mL
half-life at 28 day ([2]; 10 mg·day^−1, Effective T1/2, Day 28, 10 mg·day^−1): 21.9 h
Cmax ([2]; 20 mg·day^−1): 162 ng/mL
Cmax at 28 day ([2]; 20 mg·day^−1): 359 ng/mL
Tmax ([2]; 20 mg·day^−1): 4 h
Tmax at 28 day ([2]; 20 mg·day^−1): 3 h
concentration at 28 day ([2]; 20 mg·day^−1, Cavg, ss, Day 28, 20 mg·day^−1): 265 ng/mL
half-life at 28 day ([2]; 20 mg·day^−1, Effective T1/2, Day 28, 20 mg·day^−1): 28.8 h
half-life ([2]; Effective elimination half-life based on drug accumulation at steady state, range over dose groups): 22 to 38 h
half-life ([2]; Effective elimination half-life, mean, mean over dose groups): 30 h
Dose proportionality of pharmacokinetics ([2]; dose range of 0.3 to 20 mg): increase proportionally with the dose
Time to steady-state concentrations ([2]; multiple once-daily administration): approximately 6 days
Subjects experiencing AEs (healthy subjects; 0.3 mg dose group): three
Subjects experiencing AEs (healthy subjects; 1 mg dose group): three
Subjects experiencing AEs (healthy subjects; 2.5 mg dose group): four
Subjects experiencing AEs (healthy subjects; 10 mg dose group): six
Subjects experiencing AEs (healthy subjects; 20 mg dose group): six
Macular oedema by ocular coherence tomography (healthy subjects; 0.3–20 mg once daily, 28 days): no signs of macular oedema
Tolerability (healthy subjects; 0.3–20 mg once daily, 28 days, healthy subjects): well tolerated
Elevations in alanine aminotransferase level (healthy subjects; by dose group): occurred most frequently in subjects in the BAF312 20 mg dose group
Pulmonary function tests versus placebo (healthy subjects; not related to dose and day (data not shown)): mild to moderate, statistically significant decreases
Visual acuity scores over treatment days (healthy subjects; regardless of the dose): no notable changes
Serious AEs (healthy subjects; whole trial): no serious AEs
Disease scores (AUC from days 12 to 34) versus vehicle ([3]; 0.03 mg·kg^−1 oral once daily): borderline effect
Disease scores (AUC from days 12 to 34) versus vehicle ([3]; 0.3 mg·kg^−1 oral once daily): significant reduction
Disease scores (AUC from days 12 to 34) versus vehicle ([3]; 3 mg·kg^−1 oral once daily): significant reduction
EC50 (human S1P2 receptors): > 10000 nM
Emax (human S1P4 receptors): 90 ± 9%
Difference in mean %Emax of ALC, BAF312 versus placebo ([4]; 0.3 mg once daily, 90% CI in parentheses): 32.8%
Difference in mean %Emax of ALC, BAF312 versus placebo ([4]; 1 mg once daily): 61.6%
Average time to reach the lower limit of the normal ALC range after stopping dosing at steady state ([4]; 1 mg): approximately 24 h
Difference in mean %Emax of ALC, BAF312 versus placebo ([4]; 2.5 mg once daily): 56.7%
Difference in mean %Emax of ALC, BAF312 versus placebo ([4]; 10 mg once daily): 74.6%
Average time to reach the lower limit of the normal ALC range after stopping dosing at steady state ([4]; 10 mg): ~123 h
Difference in mean %Emax of ALC, BAF312 versus placebo ([4]; 20 mg once daily): 76.1%
Time of maximal ALC reduction post dose ([4]; day 1, healthy subjects): 4 to 6 h
Study day by which ALC returned to the normal range ([4]; treatment stopped on day 28, dose groups 0.3–10 mg): ≤ 35 days
Effect on B and T cell counts ([5]; baseline to end of treatment): strong reduction in cell counts
Effect on monocyte counts ([5]; baseline to end of treatment): Little or no effect
Leukocyte subset cell counts after discontinuation ([5]; three weeks after discontinuation (data not shown)): returned to baseline levels
EC50 (human S1P3 receptors): > 1000 nM

CCCCCCCCCCCCC/C=C/[C@@H](O)[C@@H](N)COP(=O)(O)O [S1P, sphingosine 1-phosphate, reference compound]
S1P1 receptors localized intracellularly ([1]; 1 µM, mean ± SD): 9 ± 9%
Internalization of S1P1 receptors ([1]; 1 µM, mean ± SD): 48 ± 12%
Potency in activating GIRK current relative to BAF312 [6]: approximately 8 times

CCC/N=C1\S/C(=C\c2ccc(OC[C@H](O)CO)c(Cl)c2)C(=O)N1c1ccccc1C [ponesimod]
Selectivity of S1P1 versus S1P3 (full agonist) (S1P1 receptors): 20 fold
Selectivity of S1P1 versus S1P5 (partial agonist) (S1P1 receptors): 10 fold
